From PubChem BioAssay AID1963448 (Molecular Pharmacology Branch, DTP, NCI, 2024)
Where “and” joins values, the source holds several entries; their conditions need not be identical. Identical values can stand only once.

Tested on: 616215-338-R-J1-PDC complex spheroid growth, % test/control
Test: Anticancer human tumor 616215-338-R-J1-PDC patient-derived colon adenocarcinoma cell line growth inhibition [Asc]
Settings: for viability, T/C: stronger effect = lower value
Procedure, shortened: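 Concentration series start at each agent's clinical Cmax, or at 10 microM when none is established, and drop in half-log steps; agents are applied alone or together to complex spheroids built with HUVEC and hMSC.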

[1] = curve of first compound, second compound 0.00316 µM
[2] = curve of first compound, second compound 0.01 µM
[3] = curve of first compound, second compound 0.0316 µM
[4] = curve of first compound, second compound 0.1 µM
[5] = curve of first compound, second compound 0.316 µM
[6] = curve of first compound, second compound 1 µM
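Note: spheroids exposed to agents for seven days before readout.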
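Throughout, for viability, T/C: 100% = DMSO vehicle control viability.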

O=C(c1cc(Cc2n[nH]c(=O)c3ccccc23)ccc1F)N1CCN(C(=O)C2CC2)CC1 + CNC(C)C(=O)NC1CN(S(=O)(=O)c2cccc(S(=O)(=O)N3CCC4CCC(C(=O)NC(c5ccccc5)c5ccccc5)N4C(=O)C(NC(=O)C(C)NC)C3)c2)CCC2CCC(C(=O)NC(c3ccccc3)c3ccccc3)N2C1=O
IC50 [1]: < 31.6 nM | IC50 [2]: > 10000 nM | IC50 [3]: > 10000 nM | IC50 [4]: > 10000 nM | IC50 [5]: > 10000 nM | IC50 [6]: > 10000 nM | viability, T/C (second compound 0.00316 µM, first compound 0.0316 µM): 8.47% | viability, T/C (second compound 0.00316 µM, first compound 0.1 µM): 8.86% | viability, T/C (second compound 0.00316 µM, first compound 0.316 µM): 12.9% | viability, T/C (second compound 0.00316 µM, first compound 1 µM): 10.3% | viability, T/C (second compound 0.00316 µM, first compound 3.16 µM): 8.76% | viability, T/C (second compound 0.00316 µM, first compound 10 µM): 7.09% | viability, T/C (second compound 0.01 µM, first compound 0.0316 µM): 93.3% | viability, T/C (second compound 0.01 µM, first compound 0.1 µM): 88.3% | viability, T/C (second compound 0.01 µM, first compound 0.316 µM): 97.2% | viability, T/C (second compound 0.01 µM, first compound 1 µM): 95.6% | viability, T/C (second compound 0.01 µM, first compound 3.16 µM): 80.8% | viability, T/C (second compound 0.01 µM, first compound 10 µM): 76.9% | viability, T/C (second compound 0.0316 µM, first compound 0.0316 µM): 103% | viability, T/C (second compound 0.0316 µM, first compound 0.1 µM): 91% | viability, T/C (second compound 0.0316 µM, first compound 0.316 µM): 102% | viability, T/C (second compound 0.0316 µM, first compound 1 µM): 103% | viability, T/C (second compound 0.0316 µM, first compound 3.16 µM): 94.9% | viability, T/C (second compound 0.0316 µM, first compound 10 µM): 78.1% | viability, T/C (second compound 0.1 µM, first compound 0.0316 µM): 100% | viability, T/C (second compound 0.1 µM, first compound 0.1 µM): 101% | viability, T/C (second compound 0.1 µM, first compound 0.316 µM): 94.2% | viability, T/C (second compound 0.1 µM, first compound 1 µM): 95.5% | viability, T/C (second compound 0.1 µM, first compound 3.16 µM): 95.2% | viability, T/C (second compound 0.1 µM, first compound 10 µM): 78% | viability, T/C (second compound 0.316 µM, first compound 0.0316 µM): 104% | viability, T/C (second compound 0.316 µM, first compound 0.1 µM): 98% | viability, T/C (second compound 0.316 µM, first compound 0.316 µM): 105% | viability, T/C (second compound 0.316 µM, first compound 1 µM): 106% | viability, T/C (second compound 0.316 µM, first compound 3.16 µM): 100% | viability, T/C (second compound 0.316 µM, first compound 10 µM): 69.9% | viability, T/C (second compound 1 µM, first compound 0.0316 µM): 102% | viability, T/C (second compound 1 µM, first compound 0.1 µM): 102% | viability, T/C (second compound 1 µM, first compound 0.316 µM): 96.2% | viability, T/C (second compound 1 µM, first compound 1 µM): 97.1% | viability, T/C (second compound 1 µM, first compound 3.16 µM): 94.1% | viability, T/C (second compound 1 µM, first compound 10 µM): 80.9%

Cc1nc(N2CCC3(CC2)COC(C)C3N)c(CO)nc1Sc1ccnc(N)c1Cl (stereo unspecified) + CNC(C)C(=O)NC1CN(S(=O)(=O)c2cccc(S(=O)(=O)N3CCC4CCC(C(=O)NC(c5ccccc5)c5ccccc5)N4C(=O)C(NC(=O)C(C)NC)C3)c2)CCC2CCC(C(=O)NC(c3ccccc3)c3ccccc3)N2C1=O
IC50 [1]: 969 nM | IC50 [2]: 534 nM | IC50 [3]: 1080 nM | IC50 [4]: 784 nM | IC50 [5]: 530 nM | IC50 [6]: 1770 nM | viability, T/C (second compound 0.00316 µM, first compound 0.00949 µM): 96.8% | viability, T/C (second compound 0.00316 µM, first compound 0.03 µM): 104% | viability, T/C (second compound 0.00316 µM, first compound 0.0949 µM): 89.7% | viability, T/C (second compound 0.00316 µM, first compound 0.3 µM): 99.3% | viability, T/C (second compound 0.00316 µM, first compound 0.949 µM): 50.8% | viability, T/C (second compound 0.00316 µM, first compound 3 µM): 8.66% | viability, T/C (second compound 0.01 µM, first compound 0.00949 µM): 87.2% | viability, T/C (second compound 0.01 µM, first compound 0.03 µM): 94.1% | viability, T/C (second compound 0.01 µM, first compound 0.0949 µM): 99.7% | viability, T/C (second compound 0.01 µM, first compound 0.3 µM): 85.3% | viability, T/C (second compound 0.01 µM, first compound 0.949 µM): 14.7% | viability, T/C (second compound 0.01 µM, first compound 3 µM): 7.72% | viability, T/C (second compound 0.0316 µM, first compound 0.00949 µM): 99.4% | viability, T/C (second compound 0.0316 µM, first compound 0.03 µM): 68.4% | viability, T/C (second compound 0.0316 µM, first compound 0.0949 µM): 104% | viability, T/C (second compound 0.0316 µM, first compound 0.3 µM): 98.4% | viability, T/C (second compound 0.0316 µM, first compound 0.949 µM): 54.9% | viability, T/C (second compound 0.0316 µM, first compound 3 µM): 11.4% | viability, T/C (second compound 0.1 µM, first compound 0.00949 µM): 103% | viability, T/C (second compound 0.1 µM, first compound 0.03 µM): 85.1% | viability, T/C (second compound 0.1 µM, first compound 0.0949 µM): 94% | viability, T/C (second compound 0.1 µM, first compound 0.3 µM): 115% | viability, T/C (second compound 0.1 µM, first compound 0.949 µM): 40.3% | viability, T/C (second compound 0.1 µM, first compound 3 µM): 9.21% | viability, T/C (second compound 0.316 µM, first compound 0.00949 µM): 92.2% | viability, T/C (second compound 0.316 µM, first compound 0.03 µM): 78.3% | viability, T/C (second compound 0.316 µM, first compound 0.0949 µM): 98.2% | viability, T/C (second compound 0.316 µM, first compound 0.3 µM): 68.3% | viability, T/C (second compound 0.316 µM, first compound 0.949 µM): 29.9% | viability, T/C (second compound 0.316 µM, first compound 3 µM): 11.6% | viability, T/C (second compound 1 µM, first compound 0.00949 µM): 83.1% | viability, T/C (second compound 1 µM, first compound 0.03 µM): 88.3% | viability, T/C (second compound 1 µM, first compound 0.0949 µM): 103% | viability, T/C (second compound 1 µM, first compound 0.3 µM): 92.5% | viability, T/C (second compound 1 µM, first compound 0.949 µM): 101% | viability, T/C (second compound 1 µM, first compound 3 µM): 12.8%

Cc1nc(N2CCC3(CC2)COC(C)C3N)c(CO)nc1Sc1ccnc(N)c1Cl (stereo unspecified)
viability, T/C (compound 0.00949 µM): 102% and 94% and 101% | viability, T/C (compound 0.03 µM): 90.5% and 98.1% and 102% | viability, T/C (compound 0.0949 µM): 104% and 105% and 103% | viability, T/C (compound 0.3 µM): 81.2% and 99.7% and 101% | viability, T/C (compound 0.949 µM): 48% and 102% (2×) | viability, T/C (compound 3 µM): 11.8% and 95.5% and 91.3% | IC50 (curve of compound): 871 nM and > 3000 nM
